System: drug-induced Sjogren's syndrome-like salivary dysfunction
Test: Test on drug-induced Sjogren's syndrome-like salivary dysfunction in mice
Format: in vivo
Details: female C57BL/6J mice, DMXAA 20 mg/kg s.c. four times weekly, test compound orally once a day for 8 days; FIGS. 1-3
Method: Female C57BL/6J mice (8-10-weeks-old) were injected subcutaneously with 20 mg/kg of DMXAA or its vehicle, 5% NaHCO3, four times at weekly intervals. From the day after the last DMXAA challenge, mice were orally administered the test compound or its vehicle once a day for 8 days. On the following day, saliva was collected from mice using a cotton swab under awake conditions, and saliva weight during 15 min was measured and evaluated as an indicator of salivary gland function.

SMILES	saliva production (saliva weight during 15 min)
O=C(C#Cc1ccc(-c2ccccc2)c(C(F)(F)F)c1)N1C[C@@H](O)[C@@H](O)C1 [Example 33, 1-[(3R,4S)-3,4-dihydroxypyrrolidin-1-yl]-3-[2-(trifluoromethyl)[1,1′-biphenyl]-4-yl]prop-2-yn-1-one]	significantly improved saliva production
NC(=O)C1CCN(C(=O)C#Cc2ccc(-c3ccccc3)c(C(F)(F)F)c2)CC1 [Example 34, 1-{3-[2-(trifluoromethyl)[1,1′-biphenyl]-4-yl]prop-2-ynoyl}piperidine-4-carboxamide]	significantly improved saliva production
N=S1(=O)CCN(C(=O)C#Cc2ccc(-c3ccccc3)c(C(F)(F)F)c2)CC1 [Example 99, 1-imino-4-{3-[2-(trifluoromethyl)[1,1′-biphenyl]-4-yl]prop-2-ynoyl}-1λ^6-thiomorpholin-1-one]	significantly improved saliva production
